Measured values reported in patent publication US10857180B2, “Pharmaceutical composition for improving health, cure abnormalities and degenerative disease, achieve anti-aging effect of therapy and therapeutic effect on mammals and method thereof” (priority 2014, dated 2020).

Assay: Acute toxicity / tolerated dose in healthy mice
Type: in vivo, mouse
Parameters: weight of experimental animals: unit not given here
Conditions: for animals in the group alive: 24 days
Text: To this end, the effects of the agent according to the invention on the basic physiological functions of healthy animals were studied. 70 male Cs7Bl/6J mice at the age of 7-8 weeks, weighing 18-23 g were used in the experiment. The animals were taken from R. E. Kavetsky IEPOR NASU Vivarium. Before the experiment, all the animals were healthy, with normal behavioral performance. During the experiment, the animals were kept in plastic cages under natural light illumination, on a standard diet with free access to food and water.
Clinical observations were carried out by daily examination of all animals kept in cages to identify mortality or any signs of a deviation in health status. […] All deviations were recorded. The size of the tumors was measured every 2 days (3 times a week) after the apparent onset of ascites/tumor node growth (at day 8 after the inoculation of tumor cells). Dying animals were euthanized, weighed and necropsied. The decision to euthanize such animals was taken jointly with the research supervisor and veterinarian. The animals were subjected to complete necrosis, which included examination of the external surface of the body, all passages, cranial, thoracic, abdominal cavities and their contents.
In the experiment, the animals were administered the solution comprising ^64Zne aspartate intraperitoneally at doses of 120 μg/mouse, 80 μg/mouse, 50 μg/mouse and 25 μg/mouse, and intravenously at doses of 50 μg/mouse, 25 gig/mouse and 12.5 μg/mouse. The agent was dissolved in deuterium-depleted water and injected 7 times every other day for 14 days in a volume of 0.5 ml/mouse for intraperitoneal injection and in a volume of 0.2 ml for intravenous injection with the agent. In order to determine the maximum tolerated dose of ^64Zne aspartate included in the composition of the agent according to the invention, the laboratory mice were injected with the ^64Zne aspartate solution using a series of injections (7 injections) and different routes of administration (i.p. or i.v.). The animals were observed during 24 days after the first administration of the agent (14 days for a series of injections of the ^64Zne compound and 10 days after the last administration of the agent). The overall health of the animals, state of coat and mucous membranes, their behavior, reflexes, and basic functions of the gastrointestinal tract were evaluated.

NC(CC(=O)[O-])C(=O)[O-].[64Zn+2] (racemic) [^64Zne aspartate, ^64Zn aspartate (racemic)]
animals in the group alive (i.p. 25 μg/mouse x7): 100% of the animals in the group are alive. Locomotor activity is
weight of experimental animals (i.p. 25 μg/mouse, day 0): 21.1 ± 0.5
weight of experimental animals (i.p. 25 μg/mouse, day 2): 20.1 ± 0.3
weight of experimental animals (i.p. 25 μg/mouse, day 4): 18.3 ± 0.7
weight of experimental animals (i.p. 25 μg/mouse, day 8): 18.4 ± 1
weight of experimental animals (i.p. 25 μg/mouse, day 11): 18.2 ± 0.9
weight of experimental animals (i.p. 25 μg/mouse, day 15): 19.2 ± 0.5
weight of experimental animals (i.p. 25 μg/mouse, day 19): 19.8 ± 0.4
weight of experimental animals (i.p. 25 μg/mouse, day 24): 20.5 ± 0.6
animals in the group alive (i.p. 50 μg/mouse x7): 100% of the animals in the group are alive. Locomotor activity is
weight of experimental animals (i.p. 50 μg/mouse, day 0): 21.3 ± 0.5
weight of experimental animals (i.p. 50 μg/mouse, day 2): 20.4 ± 0.4
weight of experimental animals (i.p. 50 μg/mouse, day 4): 19.2 ± 0.6
weight of experimental animals (i.p. 50 μg/mouse, day 8): 19.8 ± 0.7
weight of experimental animals (i.p. 50 μg/mouse, day 11): 19.5 ± 0.8
weight of experimental animals (i.p. 50 μg/mouse, day 15): 19 ± 0.6
weight of experimental animals (i.p. 50 μg/mouse, day 19): 19.2 ± 0.7
weight of experimental animals (i.p. 50 μg/mouse, day 24): 20 ± 0.5
animals in the group alive (i.p. 80 μg/mouse x7): 80% of the animals in the group are alive. Some changes in the
animals died after 4 or 5 injections (i.p. 80 μg/mouse, 8th or 10th day): agent. 20% of the animals in the group died after 4 or 5 injections
animals with short-lasting diarrhea (i.p. 80 μg/mouse, 18-24 hours after administration): It should be noted that a short-lasting diarrhea was observed in 40%
body weight loss compared to the control figures (i.p. 80 μg/mouse, already on the 4th day after first injection): 15-20%
weight of experimental animals (i.p. 80 μg/mouse, day 0): 21.4 ± 0.4
weight of experimental animals (i.p. 80 μg/mouse, day 2): 20.5 ± 0.5
weight of experimental animals (i.p. 80 μg/mouse, day 4): 17.3 ± 0.2
weight of experimental animals (i.p. 80 μg/mouse, day 8): 17.5 ± 0.1
weight of experimental animals (i.p. 80 μg/mouse, day 11): 17.3 ± 0.1
weight of experimental animals (i.p. 80 μg/mouse, day 15): 16.5 ± 0.1
weight of experimental animals (i.p. 80 μg/mouse, day 19): 17.2 ± 0.2
weight of experimental animals (i.p. 80 μg/mouse, day 24): 17.6 ± 0.1
animals in the group died (i.p. 120 μg/mouse, within 48 hours after the first injection): 100% of the animals in the group died within 48 hours after the
animals in the group alive (i.v. 12.5 μg/mouse x7): 100% of the animals in the group are alive. Locomotor activity is
weight of experimental animals (i.v. 12.5 μg/mouse, day 0): 21.1 ± 0.4
weight of experimental animals (i.v. 12.5 μg/mouse, day 2): 20.9 ± 0.3
weight of experimental animals (i.v. 12.5 μg/mouse, day 4): 20.2 ± 0.5
weight of experimental animals (i.v. 12.5 μg/mouse, day 8): 20.6 ± 0.9
weight of experimental animals (i.v. 12.5 μg/mouse, day 11): 20.6 ± 1
weight of experimental animals (i.v. 12.5 μg/mouse, day 15): 20.9 ± 0.9
weight of experimental animals (i.v. 12.5 μg/mouse, day 19): 21 ± 0.7
weight of experimental animals (i.v. 12.5 μg/mouse, day 24): 21.1 ± 0.8
animals in the group alive (i.v. 25 μg/mouse x7): 100% of the animals in the group are alive. Locomotor activity is
weight of experimental animals (i.v. 25 μg/mouse, day 0): 21.8 ± 0.3
weight of experimental animals (i.v. 25 μg/mouse, day 2): 21.3 ± 0.5
weight of experimental animals (i.v. 25 μg/mouse, day 4): 20.8 ± 0.5
weight of experimental animals (i.v. 25 μg/mouse, day 8): 21.4 ± 0.5
weight of experimental animals (i.v. 25 μg/mouse, day 11): 21.4 ± 0.5
weight of experimental animals (i.v. 25 μg/mouse, day 15): 21.3 ± 0.6
weight of experimental animals (i.v. 25 μg/mouse, day 19): 21.7 ± 0.4
weight of experimental animals (i.v. 25 μg/mouse, day 24): 21.6 ± 0.5
animals in the group died (i.v. 50 μg/mouse, within 10-20 minutes after the first injection): 100% of the animals in the group died within 10-20 minutes after
maximum tolerated dose (intraperitoneal): 80 μg/mouse
maximum tolerated dose (intravenously): 25 μg/mouse
